Assay results from patent US20230065740A1, “CYCLIN-DEPENDENT KINASE INHIBITORS” (SPV THERAPEUTICS INC., priority 2018, published 2023).
pIC50: −log10 of the molar value. Where two headings read alike, the source gives them in different places.

What was measured:
CDK4-CYCLIND1 = CDK4-CYCLIND1 (Homo sapiens, UniProt P11802); test: Microfluidic LabChip kinase inhibition assay, CDK4-CyclinD1; settings: CDK4 CyclinD1 IC50 (μM), 200 μM ATP, second value in parentheses on the next line
CDK7 CyclinH = CDK7 CyclinH (Homo sapiens, UniProt P50613); test: Additional inhibition assay, CDK7 CyclinH; type: biochemical
CDK1/B = CDK1/B (Homo sapiens, UniProt P06493); test: Additional inhibition assay, CDK1/B; type: biochemical
CDK2-CYCLINA = target: T1, CDK2-CYCLINA (Homo sapiens, UniProt P24941); test: Microfluidic LabChip kinase inhibition assay, CDK2-CyclinA; type: biochemical; settings: 50 μM ATP
T1 construct: purchased Millipore

CDK9-CYCLINT1 = target: T2, CDK9-CYCLINT1 (Homo sapiens, UniProt P50750); test: Microfluidic LabChip kinase inhibition assay, CDK9-CyclinT1; type: biochemical; settings: 10 μM ATP, read-out: CDK9 CyclinT1 IC50
T2 construct: purchased Carna
T2 sequence (P50750 whole entry): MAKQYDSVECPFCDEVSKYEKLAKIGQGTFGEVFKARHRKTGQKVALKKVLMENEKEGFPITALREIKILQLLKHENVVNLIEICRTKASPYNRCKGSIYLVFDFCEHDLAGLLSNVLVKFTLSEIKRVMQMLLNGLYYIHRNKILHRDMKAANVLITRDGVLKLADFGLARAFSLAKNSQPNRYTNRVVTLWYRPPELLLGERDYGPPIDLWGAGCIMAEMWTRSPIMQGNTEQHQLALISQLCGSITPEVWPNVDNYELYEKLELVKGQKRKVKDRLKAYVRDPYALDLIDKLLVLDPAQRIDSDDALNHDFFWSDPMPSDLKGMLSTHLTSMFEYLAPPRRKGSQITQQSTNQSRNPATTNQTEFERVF
T2 sequence (O60563 whole entry partner): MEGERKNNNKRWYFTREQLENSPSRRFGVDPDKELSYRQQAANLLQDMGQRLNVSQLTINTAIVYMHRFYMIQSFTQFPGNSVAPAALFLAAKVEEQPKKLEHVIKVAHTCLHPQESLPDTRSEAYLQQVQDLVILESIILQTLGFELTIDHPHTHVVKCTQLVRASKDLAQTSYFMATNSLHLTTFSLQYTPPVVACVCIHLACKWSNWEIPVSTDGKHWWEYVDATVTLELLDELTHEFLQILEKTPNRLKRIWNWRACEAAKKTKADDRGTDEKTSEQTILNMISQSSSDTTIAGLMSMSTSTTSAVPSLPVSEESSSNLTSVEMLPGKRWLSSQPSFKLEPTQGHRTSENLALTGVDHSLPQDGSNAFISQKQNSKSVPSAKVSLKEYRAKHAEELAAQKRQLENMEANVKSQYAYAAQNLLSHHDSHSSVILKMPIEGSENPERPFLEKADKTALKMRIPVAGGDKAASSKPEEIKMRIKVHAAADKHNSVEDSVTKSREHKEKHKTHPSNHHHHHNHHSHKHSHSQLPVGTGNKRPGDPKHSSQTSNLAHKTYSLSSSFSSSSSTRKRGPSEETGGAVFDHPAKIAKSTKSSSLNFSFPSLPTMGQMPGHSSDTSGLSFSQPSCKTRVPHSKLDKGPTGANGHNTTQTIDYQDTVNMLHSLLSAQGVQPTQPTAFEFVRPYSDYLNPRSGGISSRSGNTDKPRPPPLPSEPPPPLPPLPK

Chain of CDK1/B (P06493 whole entry): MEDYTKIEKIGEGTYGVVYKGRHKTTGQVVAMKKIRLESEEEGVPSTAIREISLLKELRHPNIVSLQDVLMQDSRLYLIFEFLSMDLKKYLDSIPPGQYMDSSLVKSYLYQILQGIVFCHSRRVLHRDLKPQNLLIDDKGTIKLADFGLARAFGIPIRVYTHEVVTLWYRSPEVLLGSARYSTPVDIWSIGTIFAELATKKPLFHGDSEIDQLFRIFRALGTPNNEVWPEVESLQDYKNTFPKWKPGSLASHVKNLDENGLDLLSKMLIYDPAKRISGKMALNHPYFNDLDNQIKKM
Chain of CDK1/B (P14635 whole entry partner): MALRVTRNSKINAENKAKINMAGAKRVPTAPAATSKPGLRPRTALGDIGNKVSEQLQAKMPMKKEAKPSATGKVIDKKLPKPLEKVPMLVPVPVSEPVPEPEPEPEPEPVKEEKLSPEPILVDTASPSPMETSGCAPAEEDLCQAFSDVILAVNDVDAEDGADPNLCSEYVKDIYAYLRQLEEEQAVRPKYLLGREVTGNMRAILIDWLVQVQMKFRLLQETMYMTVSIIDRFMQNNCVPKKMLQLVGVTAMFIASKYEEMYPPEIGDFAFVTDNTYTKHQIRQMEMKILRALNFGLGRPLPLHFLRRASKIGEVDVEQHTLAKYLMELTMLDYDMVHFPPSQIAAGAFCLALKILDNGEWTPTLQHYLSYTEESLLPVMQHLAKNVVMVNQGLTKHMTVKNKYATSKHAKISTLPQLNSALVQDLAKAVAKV
Chain of CDK7 CyclinH (P50613 whole entry): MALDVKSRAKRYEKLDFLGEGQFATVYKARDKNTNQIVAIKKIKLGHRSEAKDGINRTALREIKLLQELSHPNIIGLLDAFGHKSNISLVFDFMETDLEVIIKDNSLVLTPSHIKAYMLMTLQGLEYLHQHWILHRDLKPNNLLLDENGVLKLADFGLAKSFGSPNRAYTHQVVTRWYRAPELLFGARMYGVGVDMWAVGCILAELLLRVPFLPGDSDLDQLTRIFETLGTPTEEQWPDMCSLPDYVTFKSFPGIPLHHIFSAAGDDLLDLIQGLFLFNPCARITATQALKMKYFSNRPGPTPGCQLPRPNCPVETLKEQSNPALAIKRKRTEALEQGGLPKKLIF
Chain of CDK7 CyclinH (P51946 whole entry partner): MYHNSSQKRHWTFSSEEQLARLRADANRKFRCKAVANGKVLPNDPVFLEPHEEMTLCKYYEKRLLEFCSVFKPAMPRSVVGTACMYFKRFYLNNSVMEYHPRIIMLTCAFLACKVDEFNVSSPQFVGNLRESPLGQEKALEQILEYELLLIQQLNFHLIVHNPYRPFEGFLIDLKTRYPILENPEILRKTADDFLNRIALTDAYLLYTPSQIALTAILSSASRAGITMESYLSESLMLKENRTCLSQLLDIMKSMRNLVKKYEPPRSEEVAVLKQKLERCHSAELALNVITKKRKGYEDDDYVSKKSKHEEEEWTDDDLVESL
Chain of CDK7 CyclinH (P51948 whole entry partner): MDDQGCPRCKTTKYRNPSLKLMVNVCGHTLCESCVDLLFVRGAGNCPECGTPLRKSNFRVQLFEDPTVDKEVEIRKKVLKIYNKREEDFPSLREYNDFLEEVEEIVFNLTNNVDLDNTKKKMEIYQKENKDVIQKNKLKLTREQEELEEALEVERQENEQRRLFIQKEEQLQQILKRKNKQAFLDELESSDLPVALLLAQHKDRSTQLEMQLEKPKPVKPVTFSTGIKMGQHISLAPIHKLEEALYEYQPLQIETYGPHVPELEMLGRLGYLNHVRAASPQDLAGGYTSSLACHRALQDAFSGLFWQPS
Chain of CDK4-CYCLIND1 (P11802 whole entry): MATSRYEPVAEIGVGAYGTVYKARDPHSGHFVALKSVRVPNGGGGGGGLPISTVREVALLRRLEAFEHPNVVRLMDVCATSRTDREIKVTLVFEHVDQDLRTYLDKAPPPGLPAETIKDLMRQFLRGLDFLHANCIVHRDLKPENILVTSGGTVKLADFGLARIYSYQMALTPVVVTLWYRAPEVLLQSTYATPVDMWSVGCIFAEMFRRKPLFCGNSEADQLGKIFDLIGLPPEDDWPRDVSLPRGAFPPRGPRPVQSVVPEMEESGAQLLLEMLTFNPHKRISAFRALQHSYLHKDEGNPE
Chain of CDK4-CYCLIND1 (P24385 whole entry partner): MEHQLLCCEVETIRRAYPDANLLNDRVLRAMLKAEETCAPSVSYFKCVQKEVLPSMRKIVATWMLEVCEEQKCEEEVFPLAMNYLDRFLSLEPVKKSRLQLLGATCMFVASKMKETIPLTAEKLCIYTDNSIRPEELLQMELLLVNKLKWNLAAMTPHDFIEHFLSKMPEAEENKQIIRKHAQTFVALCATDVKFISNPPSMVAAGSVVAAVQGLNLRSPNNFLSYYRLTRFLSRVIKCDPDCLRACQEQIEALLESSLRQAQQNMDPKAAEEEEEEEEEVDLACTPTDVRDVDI

CN(C)[C@@H]1CCN(C(=O)c2ccc(Nc3ncc4c(n3)N(C3CCCC3)C3(CCNC3=O)C4)cc2)C1 (stereo partly drawn) [Compound C181, 7′-cyclopentyl-2′-((4-((R)-3-(dimethylamino)pyrrolidine-1-carbonyl)phenyl)amino)-5′,7′-dihydrospiro[pyrrolidine-3,6′-pyrrolo[2,3-d]pyrimidin]-2-one]
IC50 (CDK4-CYCLIND1; Table 3a): 0.0679 µM | IC50 (CDK4-CYCLIND1; Table 3b): 0.0679 µM | pIC50 (CDK7 CyclinH; Table 3a): < 5.00 | pIC50 (CDK7 CyclinH; Table 3b): < 5.00 | pIC50 (CDK1/B; Table 3a): 5.45 | pIC50 (CDK1/B; Table 3b): 5.45 | pIC50 (CDK2-CYCLINA; Table 3a): 5.71 | pIC50 (CDK2-CYCLINA; Table 3b): 5.71 | pIC50 (CDK9-CYCLINT1; Table 3a): 7.22

CC1CN(c2ccc(Nc3ncc4c(n3)N(C3CCCC3)C3(CCNC3=O)C4)cc2)CC(C)N1 (stereo not shown) [Compound C207, 7′-cyclopentyl-2′-((4-(3,5-dimethylpiperazin-1-yl)phenyl)amino)-5′,7′-dihydrospiro[pyrrolidine-3,6′-pyrrolo[2,3-d]pyrimidin]-2-one]
IC50 (CDK4-CYCLIND1; Table 3a): 0.341 µM | IC50 (CDK4-CYCLIND1; Table 3b): 0.341 µM | pIC50 (CDK7 CyclinH; Table 3a): < 5.00 | pIC50 (CDK7 CyclinH; Table 3b): < 5.00 | pIC50 (CDK1/B; Table 3a): < 5.00 | pIC50 (CDK1/B; Table 3b): < 5.00 | pIC50 (CDK2-CYCLINA; Table 3a): 5.02 | pIC50 (CDK2-CYCLINA; Table 3b): 5.02 | pIC50 (CDK9-CYCLINT1; Table 3a): 6.83

CC1CN(c2ccc(Nc3ncc4c(n3)N(C3CCCC3)C3(CC(=O)NC3=O)C4)cc2)CC(C)N1 (stereo not shown) [Compound C208, 7′-cyclopentyl-2′-((4-(3,5-dimethylpiperazin-1-yl)phenyl)amino)-5′,7′-dihydrospiro[pyrrolidine-3,6′-pyrrolo[2,3-d]pyrimidine]-2,5-dione]
IC50 (CDK4-CYCLIND1; Table 3a): 0.0668 µM | IC50 (CDK4-CYCLIND1; Table 3b): 0.0668 µM | pIC50 (CDK7 CyclinH; Table 3a): < 5.00 | pIC50 (CDK7 CyclinH; Table 3b): < 5.00 | pIC50 (CDK1/B; Table 3a): 5.69 | pIC50 (CDK1/B; Table 3b): 5.69 | pIC50 (CDK2-CYCLINA; Table 3a): 5.64 | pIC50 (CDK2-CYCLINA; Table 3b): 5.64 | pIC50 (CDK9-CYCLINT1; Table 3a): 7.10

CC(C)c1ccc(Nc2ncc3c(n2)N(C2CCCC2)C2(CCNC2=O)C3)cc1 (stereo not shown) [Compound C209, 7′-cyclopentyl-2′-((4-isopropylphenyl)amino)-5′,7′-dihydrospiro[pyrrolidine-3,6′-pyrrolo[2,3-d]pyrimidin]-2-one]
IC50 (CDK4-CYCLIND1; Table 3a): 1.38 µM | IC50 (CDK4-CYCLIND1; Table 3b): 1.38 µM | pIC50 (CDK7 CyclinH; Table 3a): < 5.00 | pIC50 (CDK7 CyclinH; Table 3b): < 5.00 | pIC50 (CDK1/B; Table 3a): < 5.00 | pIC50 (CDK1/B; Table 3b): < 5.00 | pIC50 (CDK2-CYCLINA; Table 3a): 5.30 | pIC50 (CDK2-CYCLINA; Table 3b): 5.30 | pIC50 (CDK9-CYCLINT1; Table 3a): 6.82

CN(C)CCOc1ccc(Nc2ncc3c(n2)N(C2CCCC2)C2(CCNC2=O)C3)nc1 (stereo not shown) [Compound C210, 7′-cyclopentyl-2′-((5-(2-(dimethylamino)ethoxy)pyridin-2-yl)amino)-5′,7′-dihydrospiro[pyrrolidine-3,6′-pyrrolo[2,3-d]pyrimidin]-2-one]
IC50 (CDK4-CYCLIND1; Table 3a): 3.96 µM | IC50 (CDK4-CYCLIND1; Table 3b): 3.96 µM | pIC50 (CDK7 CyclinH; Table 3a): < 5.00 | pIC50 (CDK7 CyclinH; Table 3b): < 5.00 | pIC50 (CDK1/B; Table 3a): < 5.00 | pIC50 (CDK1/B; Table 3b): < 5.00 | pIC50 (CDK2-CYCLINA; Table 3a): < 5.00 | pIC50 (CDK2-CYCLINA; Table 3b): < 5.00 | pIC50 (CDK9-CYCLINT1; Table 3a): < 5.00 | pIC50 (CDK9-CYCLINT1; Table 3b): < 5.00
